Results reported in patent EP4603105A1, “PHARMACEUTICAL COMPOSITION CONTAINING CYCLIC COMPOUND HAVING SELECTIVE KRAS INHIBITORY EFFECT AGAINST HRAS AND NRAS” (CHUGAI SEIYAKU KABUSHIKI KAISHA, priority 2022, dated 2024).
Where a SMILES comes first, the peptide text is derived from it. Bridges are numbered along the chain shown (N, C = ends). [ ]: non-standard residue; d: D form. The star is where a group is joined. hPhe(3,5-F2-4-CF3) = N[C@@H](CCc1cc(F)c(C(F)(F)F)c(F)c1)C(=O)O; hPhe(3-Cl-4-CF3) = N[C@@H](CCc1ccc(C(F)(F)F)c(Cl)c1)C(=O)O; NPrPhe(4-CF3) = CCCN[C@@H](Cc1ccc(C(F)(F)F)cc1)C(=O)O; NMeGly(cPent) = CN[C@H](C(=O)O)C1CCCC1; Pro(4,4-F2) = O=C(O)[C@@H]1CC(F)(F)CN1; Pro(4,4-Me2) = CC1(C)CN[C@H](C(=O)O)C1; αMeCha = C[C@](N)(CC1CCCCC1)C(=O)O; NMeD = CN[C@@H](CC(=O)O)C(=O)O; NMeL = CN[C@@H](CC(C)C)C(=O)O; Morpholide = C1CN(*)CCO1; Ac5c = NC1(C(=O)O)CCCC1; NEtG = CCNCC(=O)O; Sar = CNCC(=O)O

Key:
[1] = biological target: HRAS wild-type protein (Homo sapiens, UniProt P01112); experiment: Binding to HRAS by surface plasmon resonance (SPR), KD and KD ratio to KRAS
Method: (§1) Surface plasmon resonance was used to analyze the binding affinity of compounds for KRAS, NRAS, and HRAS. The apparatus used was Biacore 8K, 8K+, or T200 (GE Healthcare), and the running buffer used was HBS (10 mM HEPES-NaOH, 150 mM NaCl, pH 7.4) containing 1 mM DTT, 10 mM MgCl2, 0.01% Tween 20, 10 µM GDP, and 4% DMSO.
(§2) Biotinylated Avi-tag fusion KRAS, NRAS, and HRAS proteins were expressed in E. coli BL21 (DE3) strains, and after cells were homogenized, they were purified using Streptavidin Mutein Matrix and Superdex 75. After purification, GDP-loaded KRAS, NRAS, and HRAS proteins were immobilized on the surface of Sensor Chip CAP (Cytiva) coated with Biotin CAPture Reagent in an immobilization amount of about 100 to 300 RU. Binding of each compound was evaluated by the Single Cycle Kinetics method, and a running buffer or a compound solution was added to the RAS protein non-immobilized surface and the immobilized surface to obtain a binding response. The flow rate was set to 100 µL/min, and in the compound-adding cycle, compound solutions having different concentrations were intermittently added for 75 seconds each, starting from a low concentration. […] In the blank cycle, a running buffer was intermittently added and not the compound solution. The Biotin CAPture Reagent and RAS proteins were immobilized for each cycle, and at the end of each cycle, the sensor chip was regenerated by the regeneration solution appended to the Biotin CAPture Kit (Cytiva). Measurement was carried out at 30°C.
(§3) The resulting sensorgram was subjected to curve fitting based on a 1:1 binding model on Biacore Insight Evaluation Software or T200 Evaluation Software, and thereby the dissociation constant KD of each compound with respect to KRAS, NRAS, and HRAS was determined. […] Blank indicates a compound from which the KD value with respect to NRAS or HRAS was not obtained.

[2] = biological target: GDP-bound NRAS wild-type protein (Homo sapiens, UniProt P01111); experiment: Binding to NRAS by surface plasmon resonance (SPR), KD and KD ratio to KRAS
Method: as §1, §2, §3

[3] = test system: human lung cancer strain NCI-H441; assay type: cell-based
Method: A test compound was dispensed into a U-bottom 384-well plate as 40 nL serially diluted dimethyl sulfoxide solutions using a liquid handler Echo (LABCYTE). […] This cell suspension was dispensed in an amount of 40 µL per well into a plate containing the test compound, and cultured at 37°C in a 5% carbon dioxide gas incubator. Four days later, 20 µL of CellTiter-Glo (registered trademark) (Promega) was added to each well and […] was measured. […]

[4] = ratio of the KD value with respect to HRAS wild-type protein to the KD value with respect to KRAS
[5] = ratio of the KD value with respect to GDP-bound NRAS wild-type protein to the KD value with respect to KRAS
[6] = ratio of KD for HRAS wild-type protein to KD for KRAS
[7] = ratio of KD for GDP-bound NRAS wild-type protein to KD for KRAS

GDP-bound NRAS wild-type protein, sequence (P01111 whole entry): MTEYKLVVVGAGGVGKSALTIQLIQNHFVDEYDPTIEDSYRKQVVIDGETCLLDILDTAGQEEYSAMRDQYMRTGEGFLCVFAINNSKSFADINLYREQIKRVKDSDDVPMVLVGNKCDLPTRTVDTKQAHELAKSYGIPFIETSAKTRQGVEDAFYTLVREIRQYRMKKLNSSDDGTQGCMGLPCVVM
HRAS wild-type protein, sequence (P01112 whole entry): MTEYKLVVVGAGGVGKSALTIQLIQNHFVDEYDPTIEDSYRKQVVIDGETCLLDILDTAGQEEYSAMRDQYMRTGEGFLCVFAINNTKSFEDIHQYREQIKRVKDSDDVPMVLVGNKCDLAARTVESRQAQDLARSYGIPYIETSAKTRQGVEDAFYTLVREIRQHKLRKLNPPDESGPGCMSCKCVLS

IC50 [3] [nM]	Compound	HRAS /KRAS [1, 4]	NRAS /KRAS [2, 5]	HRAS /KRAS [1, 6]	NRAS /KRAS [2, 7]	HRAS /KRAS ([1]; ratio of KD value for HRAS wild-type protein to KD value for KRAS (SPR))	NRAS /KRAS ([2]; ratio of KD value for GDP-bound NRAS wild-type protein to KD value for KRAS (SPR))
1.6	CCCN1C(=O)CN(C)C(=O)CN(C)C(=O)[C@H]([C@@H](C)CC)NC(=O)[C@H](CC(C)C)N(C)C(=O)C[C@@H](C(=O)N2CCOCC2)N(C)C(=O)[C@H](C2CCCC2)N(C)C(=O)C2(CCCC2)NC(=O)[C@@H]2CC(C)(C)CN2C(=O)[C@H](CCc2ccc(C(F)(F)F)c(Cl)c2)NC(=O)CN(C)C(=O)[C@@H]1Cc1ccc(C(F)(F)F)cc1 [PP0446] ([NMeL]I[Sar][Sar][NPrPhe(4-CF3)][Sar][hPhe(3-Cl-4-CF3)][Pro(4,4-Me2)][Ac5c][NMeGly(cPent)][NMeD]-Morpholide; lactam N-11)	C (A compound having a KD ratio of 0.1 or more and less than 3 is denoted as C)	B (a compound having 3 or more and less than 10 is denoted as B)	–	–	–	–
84.7	CCCN1C(=O)CN(C)C(=O)CN(CC)C(=O)[C@H]([C@@H](C)CC)NC(=O)[C@H](CC(C)C)N(C)C(=O)C[C@@H](C(=O)N2CCOCC2)NC(=O)[C@H](C2CCCC2)N(C)C(=O)C2(CCCC2)NC(=O)[C@@H]2CCCN2C(=O)[C@H](CCc2ccc(C(F)(F)F)c(Cl)c2)NC(=O)CN(C)C(=O)[C@@H]1Cc1ccc(C(F)(F)F)cc1 [PP0331] ([NMeL]I[NEtG][Sar][NPrPhe(4-CF3)][Sar][hPhe(3-Cl-4-CF3)]P[Ac5c][NMeGly(cPent)]D-Morpholide; lactam N-11)	–	–	B (a compound having 3 or more and less than 10 is denoted as B)	B (a compound having 3 or more and less than 10 is denoted as B)	–	–
10.4	CCC[C@H]1C(=O)N[C@@H]([C@@H](C)CC)C(=O)N(C)CC(=O)N(C)[C@H]2C/C=C\CCN(C2=O)[C@@H](Cc2ccc(C(F)(F)F)cc2)C(=O)N(C)CC(=O)N[C@@H](CCc2ccc(C(F)(F)F)c(Cl)c2)C(=O)N2C[C@@H](C)C[C@H]2C(=O)NC2(CC(C)(C)C2)C(=O)N(C)[C@@H](C2CCCC2)C(=O)N(C)[C@H](C(=O)N(C)C)CC(=O)N1C [PP2270]	B (a compound having 3 or more and less than 10 is denoted as B)	B (a compound having 3 or more and less than 10 is denoted as B)	–	–	–	–
4.5	CCO[C@@H]1C[C@H]2C(=O)NC3(CCC3)C(=O)N(C)[C@@H](C3CCCC3)C(=O)N(C)[C@H](C(=O)N3CCOCC3)CC(=O)N(C)[C@@H](CC3CCCC3)C(=O)N[C@@H]([C@@H](C)CC)C(=O)N(C)CC(=O)N(C)[C@H]3CCCCN(C3=O)[C@@H](Cc3ccc(C(F)(F)F)cc3)C(=O)N(C)CC(=O)N[C@@H](CCc3cc(F)c(C(F)(F)F)c(F)c3)C(=O)N2C1 [PP0715]	B (a compound having 3 or more and less than 10 is denoted as B)	C (A compound having a KD ratio of 0.1 or more and less than 3 is denoted as C)	–	–	–	–
3.1	C#CC[C@H]1C(=O)N[C@@H]([C@@H](C)CC)C(=O)N(C)CC(=O)N(C)[C@H]2C/C=C\CCN(C2=O)[C@@H](Cc2ccc(C(F)(F)F)cc2)C(=O)N(C)CC(=O)N[C@@H](CCc2cc(F)c(C(F)(F)F)c(F)c2)C(=O)N2C[C@H](F)C[C@H]2C(=O)NC2(CC(C)(C)C2)C(=O)N(C)[C@@H](C2CCCC2)C(=O)N(C)[C@H](C(=O)N(C)CC)CC(=O)N1C [PP1691]	–	–	–	–	A (a compound having 10 or more and less than 20 is denoted as A)	A (a compound having 10 or more and less than 20 is denoted as A)
5.1	CCO[C@@H]1C[C@H]2C(=O)NC3(CCC3)C(=O)N(C)[C@@H](C3CCCC3)C(=O)N(C)[C@H](C(=O)N3CCOCC3)CC(=O)N(C)[C@@H](CC(C)(C)C)C(=O)N[C@@H]([C@@H](C)CC)C(=O)N(C)CC(=O)N(C)[C@H]3CCCCN(C3=O)[C@@H](Cc3ccc(C(F)(F)F)cc3)C(=O)N(C)CC(=O)N[C@@H](CCc3cc(F)c(C(F)(F)F)c(F)c3)C(=O)N2C1 [PP0714]	B (a compound having 3 or more and less than 10 is denoted as B)	C (A compound having a KD ratio of 0.1 or more and less than 3 is denoted as C)	–	–	–	–
8.1	CCOC[C@H]1C(=O)N[C@@H]([C@@H](C)CC)C(=O)N(C)CC(=O)N(C)[C@H]2C/C=C\CCN(C2=O)[C@@H](Cc2ccc(C(F)(F)F)cc2)C(=O)N(C)CC(=O)N[C@@H](CCc2cc(F)c(C(F)(F)F)c(F)c2)C(=O)N2C[C@H](OCC)C[C@H]2C(=O)NC2(CC(C)(C)C2)C(=O)N(C)[C@@H](C2CCCC2)C(=O)N(C)[C@H](C(=O)N(C)CC)CC(=O)N1C [PP2032]	B (a compound having 3 or more and less than 10 is denoted as B)	A (a compound having 10 or more and less than 20 is denoted as A)	–	–	–	–
41.6	CCCN1C(=O)CN(C)C(=O)CN(CC)C(=O)[C@H]([C@@H](C)CC)NC(=O)[C@H](CC(C)C)N(C)C(=O)C[C@@H](C(=O)N2CCOCC2)NC(=O)[C@H](C2CCCC2)N(C)C(=O)C2(CCCC2)NC(=O)[C@@H]2CC(F)(F)CN2C(=O)[C@H](CCc2ccc(C(F)(F)F)c(Cl)c2)NC(=O)CN(C)C(=O)[C@@H]1Cc1ccc(C(F)(F)F)cc1 [PP0333] ([NMeL]I[NEtG][Sar][NPrPhe(4-CF3)][Sar][hPhe(3-Cl-4-CF3)][Pro(4,4-F2)][Ac5c][NMeGly(cPent)]D-Morpholide; lactam N-11)	–	–	C (A compound having a KD ratio of 0.1 or more and less than 3 is denoted as C)	B (a compound having 3 or more and less than 10 is denoted as B)	–	–
297	CCCN1C(=O)CN(C)C(=O)CN(C)C(=O)[C@H]([C@@H](C)CC)NC(=O)[C@H](CC(C)C)N(C)C(=O)C[C@@H](C(=O)N(C)C)N(C)C(=O)[C@H](C2CCCC2)N(C)C(=O)[C@](C)(CC2CCCCC2)NC(=O)[C@@H]2CCCN2C(=O)[C@H](CCc2cc(F)c(C(F)(F)F)c(F)c2)NC(=O)CN(C)C(=O)[C@@H]1Cc1ccc(C(F)(F)F)cc1 [PP0739] ([NMeL]I[Sar][Sar][NPrPhe(4-CF3)][Sar][hPhe(3,5-F2-4-CF3)]P[αMeCha][NMeGly(cPent)][NMeD]-NMe2; lactam N-11)	C (A compound having a KD ratio of 0.1 or more and less than 3 is denoted as C)	B (a compound having 3 or more and less than 10 is denoted as B)	–	–	–	–
7.2	CCO[C@@H]1C[C@H]2C(=O)NC3(CCC3)C(=O)N(C)[C@@H](C3CCCC3)C(=O)N(C)[C@H](C(=O)N3CCOCC3)CC(=O)N(C)[C@@H](CC)C(=O)N[C@@H]([C@@H](C)CC)C(=O)N(C)CC(=O)N(C)[C@H]3C[C@@H](C)CCN(C3=O)[C@@H](Cc3ccc(C(F)(F)F)cc3)C(=O)N(C)CC(=O)N[C@@H](CCc3cc(F)c(C(F)(F)F)c(F)c3)C(=O)N2C1 [PP1027]	–	–	B (a compound having 3 or more and less than 10 is denoted as B)	C (A compound having a KD ratio of 0.1 or more and less than 3 is denoted as C)	–	–
14	CCO[C@@H]1C[C@H]2C(=O)NC3(CCC3)C(=O)N(C)[C@@H](C3CCCC3)C(=O)N(C)[C@H](C(=O)N(C)C)CC(=O)N(C)[C@@H](CC)C(=O)N[C@@H]([C@@H](C)CC)C(=O)N3CC[C@H]3C(=O)N(C)[C@H]3C[C@@H](C)CCN(C3=O)[C@@H](Cc3ccc(C(F)(F)F)cc3)C(=O)N(C)CC(=O)N[C@@H](CCc3cc(F)c(C(F)(F)F)c(F)c3)C(=O)N2C1 [PP1021]	–	–	B (a compound having 3 or more and less than 10 is denoted as B)	C (A compound having a KD ratio of 0.1 or more and less than 3 is denoted as C)	–	–
